Reference: patent US20240190872A1, “FABI INHIBITORS FOR GRAM-NEGATIVE PATHOGENS” (THE BOARD OF TRUSTEES OF THE UNIVERSITY OF ILLINOIS, priority 2021, published 2024)
Converted amounts (≈) assume the structure as drawn. Where two headings read alike, the source gives them in different places.

Key:
[1] = tested on: S. aureus ATCC 29213; assay: Antimicrobial susceptibility test (MIC), micro-dilution broth; assay type: cell-based; details: Staphylococcus aureus, ATCC29213; S. aureus ATCC 29213; read-out: MIC S. aureus 29213
In short: (§1)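 CLSI micro-dilution broth method in cation-adjusted Mueller-Hinton broth, in biological triplicate; human serum (pooled, filtered) was also used.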

[2] = tested on: E. coli MG1655; assay: Antimicrobial susceptibility test (MIC); assay type: cell-based; details: Escherichia coli, MG1655
In short: as §1

[3] = tested on: K. pneumoniae BAA 2472; assay: microbe, parasite or virus in culture; assay type: cell-based; details: Klebsiella pneumoniae, BAA2472, read-out: MIC K. pneumoniae BAA 2472, clinical isolate
In short: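 MICs by CLSI broth microdilution in cation-adjusted Mueller-Hinton broth, performed in biological triplicate. Strains: efflux-deficient E. coli ΔtolC (JW5503, KEIO collection) and K. pneumoniae BAA-2472 (ATCC).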

[4] = tested on: A. baumannii AR 0033; assay: microbe, parasite or virus in culture; assay type: cell-based; details: Acinetobacter baumannii, AR0033, read-out: MIC A. baumannii AR 0033, clinical isolate
In short: (§2)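 Susceptibility values come from triplicate biological repeats of a CLSI-style broth dilution assay using cation-adjusted Mueller-Hinton medium.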

[5] = tested on: A. baumannii AR 0313; assay: microbe, parasite or virus in culture; assay type: cell-based; details: Acinetobacter baumannii, AR0313, read-out: MIC A. baumannii AR 0313, clinical isolate
In short: as §2

[6] = tested on: E. coli AR 0085; assay: microbe, parasite or virus in culture; assay type: cell-based; details: Escherichia coli, AR0085, read-out: MIC E. coli AR 0085, clinical isolate
In short: as §2

[7] = tested on: K. pneumoniae AR 0066; assay: microbe, parasite or virus in culture; assay type: cell-based; details: Klebsiella pneumoniae, AR0066, read-out: MIC K. pneumoniae AR 0066, clinical isolate
In short: as §2

[8] = tested on: K. pneumoniae AR 0113; assay: microbe, parasite or virus in culture; assay type: cell-based; details: Klebsiella pneumoniae, AR0113, read-out: MIC K. pneumoniae AR 0113, clinical isolate
In short: as §2

[9] = tested on: 100 A. baumannii clinical isolates; assay: MIC90 against 100 A. baumannii clinical isolates; assay type: cell-based; details: Acinetobacter baumannii
Procedure: Antimicrobial susceptibility tests. Susceptibility testing was performed in biological triplicate, using the micro-dilution broth method as outlined by the Clinical and Laboratory Standards Institute. Bacteria were cultured with cation-adjusted Muller-Hinton broth (Sigma-Aldrich, Cat# 90922) in round-bottom 96-well plates (Corning, Cat# 3788). Human serum (pooled gender, 0.2 μm filtered) was purchased from BioIVT (Hicksville, NY).

[10] = tested on: E. coli MG1655 FabI mutant; assay: MIC against fabimycin-resistant E. coli MG1655 colonies (FabI mutants); assay type: cell-based; details: Escherichia coli
Procedure: Selection of resistant mutants. Resistant mutants were selected via the large inoculum method. Briefly, E. coli MG1655 (1.8×10^9 CFU) were plated on 100 mm plates of LB agar containing 64, 32, and 16 μg/mL Debio-1452-NH3. […] Resistant colonies were confirmed by streaking on selective media with the same concentration of Debio-1452-NH3.

[11] = tested on: H. sapiens HFF-1; assay: In-vitro cytotoxicity; assay type: cell-based
[12] = tested on: A. baumannii AR-299; assay: Acute pneumonia (lung) infection; assay type: in vivo, CD-1 mice; details: 50 mg/kg, intramuscular (QD), 48 h
Procedure: With formulation, MTD, and pharmacokinetic data in hand, the efficacy of fabimycin was evaluated in murine infection models. To start, a comparative assessment was made of fabimycin and Debio-1452-NH3 in two murine neutropenic infection models using a dosing regimen that is at the MTD for Debio-1452-NH3 but below the MTD for fabimycin (three doses, intramuscular, at 50 mg/kg).
Chart 1. Summary of Fabimycin in vivo models.

[13] = in vitro; details: mouse, plasma, Plasma stability, t1/2, Mouse
[14] = in vitro; details: human, plasma
[15] = target: HERG (Homo sapiens (Human), UniProt Q12809); assay: cell-based
[16] = target: CYP 2C9 (Homo sapiens (Human), UniProt P11712); assay: biochemical
[17] = target: CYP 2C19 (Homo sapiens (Human), UniProt P33261); assay: biochemical
[18] = Plasma stability
[19] = Plasma stability; remark: listed apart in the source
[20] = Plasma protein binding
[21] = Plasma protein binding; remark: listed apart in the source

CYP 2C9, sequence (P11712 whole entry): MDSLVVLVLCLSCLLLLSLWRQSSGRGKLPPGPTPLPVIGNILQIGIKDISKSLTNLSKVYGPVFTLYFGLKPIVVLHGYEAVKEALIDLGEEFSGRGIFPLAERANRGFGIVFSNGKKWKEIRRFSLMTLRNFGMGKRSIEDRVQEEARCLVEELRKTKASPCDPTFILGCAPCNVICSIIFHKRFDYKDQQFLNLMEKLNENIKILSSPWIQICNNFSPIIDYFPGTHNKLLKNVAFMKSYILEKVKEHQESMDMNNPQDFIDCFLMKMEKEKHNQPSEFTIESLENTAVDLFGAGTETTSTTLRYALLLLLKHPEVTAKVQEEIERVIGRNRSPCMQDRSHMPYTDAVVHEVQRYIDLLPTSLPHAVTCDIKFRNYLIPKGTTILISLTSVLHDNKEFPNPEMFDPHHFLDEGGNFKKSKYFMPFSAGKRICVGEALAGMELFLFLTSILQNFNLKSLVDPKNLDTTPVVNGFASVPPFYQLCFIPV
CYP 2C19, sequence (P33261 whole entry): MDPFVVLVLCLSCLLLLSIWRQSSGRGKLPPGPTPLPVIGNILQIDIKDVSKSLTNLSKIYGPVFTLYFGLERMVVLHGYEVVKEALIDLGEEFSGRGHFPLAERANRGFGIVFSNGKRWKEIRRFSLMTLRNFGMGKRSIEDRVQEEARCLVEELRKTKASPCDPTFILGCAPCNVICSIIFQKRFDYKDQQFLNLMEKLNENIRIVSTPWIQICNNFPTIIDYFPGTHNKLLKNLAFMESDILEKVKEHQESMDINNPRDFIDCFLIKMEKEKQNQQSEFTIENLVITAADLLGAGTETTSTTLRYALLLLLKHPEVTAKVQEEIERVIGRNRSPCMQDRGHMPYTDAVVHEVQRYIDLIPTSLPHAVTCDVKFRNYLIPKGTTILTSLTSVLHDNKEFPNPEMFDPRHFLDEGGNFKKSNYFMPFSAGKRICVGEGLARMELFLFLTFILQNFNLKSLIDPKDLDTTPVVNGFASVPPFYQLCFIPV
HERG, sequence (Q12809 whole entry): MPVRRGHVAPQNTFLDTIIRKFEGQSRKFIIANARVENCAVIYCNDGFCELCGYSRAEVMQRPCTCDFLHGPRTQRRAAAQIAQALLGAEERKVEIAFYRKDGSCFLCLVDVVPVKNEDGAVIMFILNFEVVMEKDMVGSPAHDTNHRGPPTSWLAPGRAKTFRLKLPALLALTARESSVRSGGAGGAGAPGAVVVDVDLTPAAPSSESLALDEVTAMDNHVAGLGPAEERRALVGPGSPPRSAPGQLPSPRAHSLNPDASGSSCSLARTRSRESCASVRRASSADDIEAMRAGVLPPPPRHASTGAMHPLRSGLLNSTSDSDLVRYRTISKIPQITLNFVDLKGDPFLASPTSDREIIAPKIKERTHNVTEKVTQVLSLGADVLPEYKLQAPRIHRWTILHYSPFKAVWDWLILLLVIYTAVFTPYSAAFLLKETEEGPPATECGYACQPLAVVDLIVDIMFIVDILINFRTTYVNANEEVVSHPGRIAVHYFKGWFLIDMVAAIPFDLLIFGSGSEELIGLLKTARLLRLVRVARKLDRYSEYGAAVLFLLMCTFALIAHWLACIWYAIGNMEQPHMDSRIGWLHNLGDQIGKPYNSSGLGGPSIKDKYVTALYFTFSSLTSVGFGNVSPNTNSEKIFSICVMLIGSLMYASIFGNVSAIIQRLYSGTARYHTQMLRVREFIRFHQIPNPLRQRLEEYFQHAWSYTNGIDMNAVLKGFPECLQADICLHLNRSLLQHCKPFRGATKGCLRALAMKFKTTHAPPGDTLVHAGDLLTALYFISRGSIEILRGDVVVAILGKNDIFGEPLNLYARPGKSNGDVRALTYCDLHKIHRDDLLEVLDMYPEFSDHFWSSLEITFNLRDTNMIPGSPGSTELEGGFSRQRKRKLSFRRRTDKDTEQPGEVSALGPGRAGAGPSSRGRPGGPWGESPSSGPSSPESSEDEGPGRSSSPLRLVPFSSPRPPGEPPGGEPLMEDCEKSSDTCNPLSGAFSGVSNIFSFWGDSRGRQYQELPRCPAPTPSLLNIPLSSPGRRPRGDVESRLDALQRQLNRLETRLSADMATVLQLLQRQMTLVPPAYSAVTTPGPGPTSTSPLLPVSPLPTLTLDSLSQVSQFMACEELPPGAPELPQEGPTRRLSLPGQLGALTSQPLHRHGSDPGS

Work on `Cc1c(CN(C)C(=O)/C=C/c2cnc3c(c2)CC[C@H](N)C(=O)N3)oc2ccccc12` [(S)-11, (S,E)-3-(7-amino-8-oxo-6,7,8,9-tetrahydro-5H-pyrido[2,3-b]azepin-3-yl)-N-methyl-N-((3-methylbenzofuran-2-yl)methyl)acrylamide] yielded an MIC [1] of 4 ng/mL (≈ 0.00989 µM), an MIC [2] of 2 µg/mL (≈ 4.94 µM) and an MIC [3] of 4 µg/mL (≈ 9.89 µM). The MIC [4] was 8 µg/mL (≈ 19.8 µM), the MIC [5] was 4 µg/mL (≈ 9.89 µM) and the MIC [6] was 1 µg/mL (≈ 2.47 µM). For the same compound, the MIC [7] was 4 µg/mL (≈ 9.89 µM), the MIC [8] was 4 µg/mL (≈ 9.89 µM) and the MIC90 [9] was 8 µg/mL (≈ 19.8 µM). For the same compound, the MIC ([10]; MG1655, read-out: MIC, FabI mutant G148A) was 64 to 128 µg/mL (≈ 158 to 316 µM), the MIC ([10]; MG1655, read-out: MIC, FabI mutant H209P) was 61 to 128 µg/mL (≈ 151 to 316 µM) and the inhibition at 30 µM [11] was 9.5 ± 3.4%. The IC50 ([11]; cytotoxicity) was 112 ± 11 µM, the “log reduction relative to the vehicle” value [12] was 3.9 log and the half-life [13] was 82.6 min. The half-life [14] was 1400 min, the IC50 [15] was 21.8 µM and the IC50 [16] was 27 µM. The IC50 [17] was 60 µM, the “stability in mouse plasma (in words)” value [18] was “considerable instability” and the “stability in human plasma (in words)” value [19] was “excellent stability”. For the same compound, the “Plasma protein binding, Mouse” value ([20]; Mouse) was 96%, the fraction unbound ([20]; mouse, plasma) was 0.04 and the “Plasma protein binding, Human” value ([21]; Human) was 94%. It also gave a fraction unbound ([21]; human, plasma) of 0.06.
